The results in this text go back to ChEMBL document CHEMBL1201862, “PubChem BioAssay data set” (2004).

SMILES strings stand for the structures.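 Protocol summary: plate cells (96-well), add compound at 5 concentrations, incubate 48 h, interpolate endpoints linearly. GI50 marks 50% less growth.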 Calls of active or inactive are those of the source. No stated cut-off is given here; in the data, active = GI50 up to about 1.1 µM and inactive = higher. Where a SMILES comes first, the peptide text is derived from it. [ ]: non-standard residue; d: D form. The star is where a group is joined. Bn2Val = CC(C)[C@@H](C(=O)*)N(Cc1ccccc1)Cc1ccccc1; NH(3,4-diMeO-benzyl) = COc1ccc(CN*)cc1OC; NMeV = CN[C@H](C(=O)O)C(C)C

Common to all, as to experiment: NCI tumour cell line growth inhibition, 48 h
Assay [1] relates to COLO 205.
Assay [2] relates to SK-MEL-28.
Assay [3] has as its system MDA-MB-231.
The test system of assay [4] is SW-620.
For assay [5], the system named is UACC-257.
In assay [6] the test system is HCT-15.
The subject of assay [7] is SF-268.
Assay [8] relates to SNB-19.
The subject of assay [9] is U-251.
Assay [10] deals with UACC-62.
Assay [11] has as its system DU-145.
The subject of assay [12] is OVCAR-3.
Assay [13] deals with SK-MEL-2.
The subject of assay [14] is Hs-578T.
The subject of assay [15] is PC-3.
Assay [16] relates to EKVX.
In assay [17] the test system is IGROV-1.
Assay [18] relates to A498.
For assay [19], the system named is RXF 393.

In the case of `NC(=O)N/N=C(/CC1C(=O)Oc2ccccc21)c1ccccc1O` (stereo not given), the GI50 in assay [1] was 98.2 µM (inactive); in [2], 48.3 µM (inactive); in [3], > 100 µM (inactive); in assay [4] it was 45.7 µM (inactive); in assay [5], 44.7 µM (inactive); in assay [6], 38.4 µM. For the same compound, the GI50 in assay [7] is > 100 µM (inactive); in [8], 60 µM (inactive); in assay [9], 30.1 µM (inactive); in assay [10] it was 19.1 µM (inactive); in assay [11], 50.1 µM (inactive); in [12], 78.2 µM (inactive). Moreover, the GI50 in [13] was > 100 µM (inactive); in assay [14] it was > 100 µM (inactive); in [15], > 100 µM (inactive); in assay [16], 87.5 µM (inactive); in [17] it was 36.6 µM (inactive); in assay [18], 49.3 µM (inactive). Further, the GI50 in [19] is 29.6 µM (inactive).

Consider `COc1ccc(C(OCC2OC(n3cc(C)c(=O)[nH]c3=O)CC2n2cc(Cn3cc(Cl)c(=O)[nH]c3=O)nn2)(c2ccccc2)c2ccccc2)cc1` (stereo not given), for which the GI50 in assay [1] was > 100 µM (inactive); in assay [2] it was 87.5 µM (inactive); in assay [3] it was 27.6 µM (inactive); in assay [4], > 100 µM (inactive); in assay [5], > 100 µM (inactive); in [6], above 100 µM. For the same compound, the GI50 in [7] was > 100 µM (inactive); in [8], > 100 µM (inactive); in [9], 24.8 µM (inactive); in [10], 38 µM (inactive); in assay [11], > 100 µM (inactive); in assay [12], > 100 µM (inactive). Moreover, the GI50 in assay [13] is > 100 µM (inactive); in assay [14], 65 µM (inactive); in assay [15], 13.6 µM (inactive); in [16], > 100 µM (inactive); in assay [17], 39.5 µM (inactive); in [18] it was > 100 µM (inactive). Further, in assay [19], the GI50 was > 100 µM (inactive).

On to `S=c1nc(Nc2ccccc2)c2c3c(sc2[nH]1)CCCC3`, for which the GI50 in assay [1] was > 100 µM (inactive); in assay [2], > 100 µM (inactive); in assay [3] it was > 100 µM (inactive); in assay [4] it was > 100 µM (inactive); in assay [5] it was > 100 µM (inactive); in assay [6], above 100 µM. Also, the GI50 in assay [7], in assay [8], in assay [9], in assay [10], in [11] and in assay [12] was > 100 µM (inactive) each time. The GI50 in assay [13] is > 100 µM (inactive); in assay [14] it was > 100 µM (inactive); in assay [15], > 100 µM (inactive); in assay [16] it was 2.32 µM (inactive); in assay [17], > 100 µM (inactive); in assay [18] it was > 100 µM (inactive). For the same compound, in assay [19], the GI50 was > 100 µM (inactive).

As for `CCOC(=O)C(NC(=O)OCc1ccccc1)C(=O)O` (stereo not given), the GI50 in assay [1] was > 100 µM (inactive); in assay [2], > 100 µM (inactive); in [3], > 100 µM (inactive); in assay [4] it was > 100 µM (inactive); in [5], > 100 µM (inactive); in assay [6], above 100 µM. The GI50 in assay [7], in assay [8], in assay [9], in assay [10], in assay [11] and in [12] was > 100 µM (inactive) throughout. Besides, the GI50 in assay [13], in assay [14], in assay [15], in [16], in assay [17] and in assay [18] was > 100 µM (inactive) each time. Also, the GI50 in assay [19] was > 100 µM (inactive).

`CC(C)OC(=O)NNc1c(Cl)cc(Cl)cc1Cl`: the GI50 is 49.1 µM (inactive) in [1]; > 100 µM (inactive) in assay [2]; > 100 µM (inactive) in assay [3]; > 100 µM (inactive) in [4]; 33.7 µM (inactive) in assay [5]; 58.5 µM in assay [6]. For the same compound, the GI50 is 39.1 µM (inactive) in assay [7]; > 100 µM (inactive) in assay [8]; > 100 µM (inactive) in [9]; 56.9 µM (inactive) in [10]; > 100 µM (inactive) in [11]; 56 µM (inactive) in assay [12]. In addition, the GI50 in assay [13] is 55.6 µM (inactive); in [14], 58.2 µM (inactive); in assay [15], 36.9 µM (inactive); in assay [16] it was 31.6 µM (inactive); in [17], 37.3 µM (inactive); in assay [18], 30.5 µM (inactive). Moreover, the GI50 in assay [19] is 26.2 µM (inactive).

Consider `O=C(O)c1ccc(NC(c2ccccc2)c2ccc3cccnc3c2O)cc1` (stereo not given), for which the GI50 was 9.84 µM (inactive) in assay [1]; 11.2 µM (inactive) in assay [2]; 10.8 µM (inactive) in assay [3]; 5.77 µM (inactive) in [4]; 11.1 µM (inactive) in [5]; 4.95 µM in assay [6]. Further, the GI50 in assay [7] was 7.1 µM (inactive); in assay [8], 6.7 µM (inactive); in assay [9] it was 4.17 µM (inactive); in assay [10], 6.58 µM (inactive); in assay [11], 17.7 µM (inactive); in assay [12], 2.99 µM (inactive). Further, the GI50 in [13] is 26.1 µM (inactive); in [14] it was 28.5 µM (inactive); in [15], 9.57 µM (inactive); in assay [16], 7.85 µM (inactive); in assay [17], 16.5 µM (inactive); in assay [18], 18.3 µM (inactive). In [19], the GI50 is 9.12 µM (inactive).

Regarding `O=c1[nH]nc(-c2ccccc2)n1/N=C/c1cccc([N+](=O)[O-])c1`, the GI50 was > 100 µM (inactive) in assay [1]; > 100 µM (inactive) in assay [2]; > 100 µM (inactive) in [3]; > 100 µM (inactive) in [4]; > 100 µM (inactive) in [5]; above 100 µM in assay [6]. Also, the GI50 in assay [7] is > 100 µM (inactive); in [8] it was 98.6 µM (inactive); in [9], 41.5 µM (inactive); in assay [10], > 100 µM (inactive); in [11], > 100 µM (inactive); in assay [12] it was > 100 µM (inactive). For the same compound, the GI50 in assay [13], in assay [14], in [15], in assay [16], in assay [17] and in assay [18] was > 100 µM (inactive) throughout. Moreover, the GI50 in [19] was 49.8 µM (inactive).

With `COc1ccc(CNC(=O)[C@@H]2CCCN2C(=O)[C@@H]2CCCN2C(=O)[C@H](C(C)C)N(C)C(=O)[C@@H](NC(=O)[C@H](C(C)C)N(Cc2ccccc2)Cc2ccccc2)C(C)C)cc1OC` (Bn2Val-V[NMeV]PP-{NH(3,4-diMeO-benzyl)}), the GI50 in [1] is 9.71 µM (inactive); in assay [2], 16.9 µM (inactive); in assay [3], 17.5 µM (inactive); in assay [4], 12.8 µM (inactive); in assay [5], 11.3 µM (inactive); in assay [6], 12.1 µM. Further, the GI50 in assay [7] is 21.3 µM (inactive); in assay [8], 15.9 µM (inactive); in assay [9], 15.7 µM (inactive); in [10], 14.5 µM (inactive); in assay [11] it was 14.8 µM (inactive); in assay [12], 12 µM (inactive). In addition, the GI50 in assay [13] was 13.4 µM (inactive); in assay [14] it was 51.3 µM (inactive); in [15], 6.15 µM (inactive); in [16], 13.4 µM (inactive); in assay [17] it was 3.92 µM (inactive); in [18], 17.8 µM (inactive). The GI50 in assay [19] is 11.1 µM (inactive).

As for `O=S(=O)(SC1=NCCN1)c1ccc2ccccc2c1`, the GI50 in [1] is 18.7 µM (inactive); in [2] it was 34.8 µM (inactive); in assay [3], 17.2 µM (inactive); in [4], 19.7 µM (inactive); in assay [5], 39.4 µM (inactive); in assay [6], 25.1 µM. In addition, the GI50 was 23.2 µM (inactive) in assay [7]; 20.2 µM (inactive) in assay [8]; 23.8 µM (inactive) in assay [9]; 30.1 µM (inactive) in assay [10]; 32 µM (inactive) in assay [11]; 27.5 µM (inactive) in assay [12]. In addition, the GI50 in assay [13] is 24.8 µM (inactive); in assay [14], 35.6 µM (inactive); in assay [15], 30.7 µM (inactive); in assay [16], 33.2 µM (inactive); in assay [17], 31 µM (inactive); in [18], 92.7 µM (inactive). In addition, the GI50 in assay [19] is 24.3 µM (inactive).

As to `Cc1ccc(NC(=O)CSc2nc(C)nc3c2sc(=S)n3-c2ccccc2)cc1`, the GI50 was 6.15 µM (inactive) in assay [1]; > 10 µM (inactive) in [2]; 6.3 µM (inactive) in [3]; > 10 µM (inactive) in [4]; > 10 µM (inactive) in [5]; above 10 µM in assay [6]. Moreover, the GI50 in [7] was 6.14 µM (inactive); in assay [8], 5.37 µM (inactive); in assay [9] it was 3.84 µM (inactive); in assay [10], > 10 µM (inactive); in assay [11], > 10 µM (inactive); in assay [12], 5.37 µM (inactive). Besides, the GI50 in assay [13] was > 10 µM (inactive); in [14], 2.66 µM (inactive); in [15], > 10 µM (inactive); in assay [16] it was 5.08 µM (inactive); in [17], > 10 µM (inactive); in [18], > 10 µM (inactive). For the same compound, in assay [19], the GI50 is 1.79 µM (inactive).
